The source made the active and inactive calls. The calls are words filed in the database; no cut-off is given here.
Assays:
[1] = Toxicity in mouse infected with Schistosoma mansoni BH cercariae at 400 mg/kg, po after 14 days administered as dose starting on day 49 post-infection and measured after 14 days; type: organism-based; details: in vivo, 336 h, time 14 day
[2] = Cytotoxicity against human HaCaT cells assessed as reduction in cell viability after 48 hrs by MTT assay; type: cell-based
Schistosoma mansoni [3] = test: Antischistosomal activity against Schistosoma mansoni BH cercariae infected in mouse assessed as reduction in egg burden in fecal at 400 mg/kg, po administered as dose starting on day 49 post-infection and measured after 14 days post treatment relative to control; type: functional; set-up: scale not given: the % may be the effect or the level left; details: time 14 day
[4] = Selectivity index, ratio of CC50 for cytotoxicity against human HaCaT cells to LC50 for antischistosomal activity against Schistosoma mansoni BH; type: toxicity, cell-based; details: read-out: Selectivity Index
Schistosoma mansoni [5] = test: Antischistosomal activity against Schistosoma mansoni BH assessed as reduction in parasitic viability after 72 hrs by inverted microscopic method; type: functional
Schistosoma mansoni [6] = test: Antischistosomal activity against female Schistosoma mansoni BH assessed as dilation of ovaries at 25 uM after 72 hrs microscopic method; type: functional, organism-based
[7] = Cytotoxicity against human SH-SY5Y cells assessed as reduction in cell viability after 48 hrs by MTT assay; type: cell-based
Schistosoma mansoni [8] = test: Antischistosomal activity against Schistosoma mansoni BH cercariae infected in mouse assessed as reduction in egg burden in wall of intestine at 400 mg/kg, po administered as dose starting on day 49 post-infection and measured after 14 days post treatment relative to control; type: functional; set-up: scale not given: the % may be the effect or the level left; details: time 14 day
Schistosoma mansoni [9] = test: Antischistosomal activity against Schistosoma mansoni BH assessed as reduction in oviposition at 6.25 to 25 uM after 72 hrs light microscopic method; type: functional, organism-based; details: dose 6.25-25 µM
Schistosoma mansoni [10] = test: Antischistosomal activity against Schistosoma mansoni BH cercariae infected in mouse assessed as reduction in liver weight at 400 mg/kg, po administered as dose starting on day 49 post-infection and measured after 14 days post treatment relative to control; type: functional; set-up: scale not given: the % may be the effect or the level left; details: time 14 day
[11] = Selectivity index, ratio of CC50 for cytotoxicity against human SH-SY5Y cells to LC50 for antischistosomal activity against Schistosoma mansoni BH; type: toxicity, cell-based; details: read-out: Selectivity Index
Schistosoma mansoni [12] = test: Antischistosomal activity against Schistosoma mansoni BH cercariae infected in mouse assessed as reduction in spleen weight at 400 mg/kg, po administered as dose starting on day 49 post-infection and measured after 14 days post treatment relative to control; type: functional; set-up: scale not given: the % may be the effect or the level left; details: time 14 day
Schistosoma mansoni [13] = test: Antischistosomal activity against male Schistosoma mansoni BH assessed as dilation of testes at 25 uM after 72 hrs microscopic method; type: functional, organism-based
Schistosoma mansoni [14] = test: Antischistosomal activity against Schistosoma mansoni BH assessed as reduction in parasitic viability at 25 uM after 24 hrs inverted light microscopic method; type: functional, organism-based
Schistosoma mansoni [15] = test: Antischistosomal activity against Schistosoma mansoni BH cercariae infected in mouse assessed as reduction in worm burden at 400 mg/kg, po administered as single dose starting on day 49 post-infection and measured after 14 days post treatment relative to control; type: functional; set-up: scale not given: the % may be the effect or the level left; details: time 14 day
Schistosoma mansoni [16] = test: Antischistosomal activity against Schistosoma mansoni BH assessed as reduction in oviposition at 25 uM after 72 hrs light microscopic method; type: functional, organism-based

Compound | Activity [1] | CC50 at 48 h [2] [µM] | Activity (Schistosoma mansoni [3]) [%] | selectivity ratio [4] | LC50 (Schistosoma mansoni [5]) [µM] | Activity (Schistosoma mansoni [6]) | CC50 at 48 h [7] [µM] | Activity (Schistosoma mansoni [8]) [%] | Activity (Schistosoma mansoni [9]) | Activity (Schistosoma mansoni [10]) [%] | selectivity ratio [11] | Activity (Schistosoma mansoni [12]) [%] | Activity (Schistosoma mansoni [13]) | Activity (Schistosoma mansoni [14]) | Activity (Schistosoma mansoni [15]) [%] | Activity (Schistosoma mansoni [16])
C=C1[C@@H]2CC[C@H]3[C@]4(C)CCC[C@@](C)(C(=O)O)[C@H]4CC[C@]3(C2)[C@H]1OC(=O)C=C(C)C | Non-Toxic | 147 | 71.6 | 12.7 | 11.6 | Active | 106 | 69.2 | Active | 23.5 | 9.1 | 29.8 | Active | Active | 61.9 | –
C=C1C[C@@]23CC[C@H]4[C@@](C)(CCC[C@@]4(C)C(=O)O)[C@@H]2CC[C@@H]1C3 [KAURENOIC ACID] | – | 109 | – | 4.2 | 26.1 | inactive | 45.4 | – | – | – | 1.7 | – | inactive | Active | – | Active
O=C(C1CCCCC1)N1CC(=O)N2CCc3ccccc3C2C1 (stereo not given) [PRAZIQUANTEL] | – | > 200 | – | > 180 | 1.1 | – | > 200 | – | – | – | > 180 | – | – | – | 91.1 | –

From ChEMBL document CHEMBL4673321, “15β-Senecioyl-oxy-ent-kaur-16-en-19-oic Acid, a Diterpene Isolated from Baccharis lateralis, as Promising Oral Compound for the Treatment of Schistosomiasis” (J Nat Prod, 2020)
